Structures can show the parent of a compound that is named as a salt. Where two headings read alike, the source gives them in different places.
What was measured:
[1] = target: D2 receptors (Chlorocebus aethiops, UniProt P52702); assay: biochemical; assay type: binding, African Green monkey
Description: (§1) Pellets of COS cells containing recombinantly produced D2 or D3 receptors from African Green monkey were used for the assays. The sample is homogenized in 100 volumes (w/vol) of 0.05 M Tris HCl buffer at 4° C. and pH 7.4. The sample is then centrifuged at 30,000×g and resuspended and rehomogenized. The sample is then centrifuged as described and the final tissue sample is frozen until use. The tissue is resuspended 1:20 (wt/vol) in 0.05 M Tris HCl buffer containing 100 mM NaCl.
(§2) Incubations are carried out at 48° C. and contain 0.4 ml of tissue sample, 0.5 nM ^3 H-YM 09151-2 and the compound of interest in a total incubation of 1.0 ml. Nonspecific binding is defined as that binding found in the presence of 1 mM spiperone; without further additions, nonspecific binding is less than 20% of total binding.

[2] = target: D3 receptors (Chlorocebus aethiops, UniProt P52703); assay: biochemical; assay type: binding, African Green monkey
Description: as §1, §2

[3] = COS cells containing recombinant D2 receptors, 0.5 nM ^3 H-YM 09151-2, nonspecific binding with 1 mM spiperone, read-out: D2 Ki
[4] = COS cells containing recombinant D3 receptors, 0.5 nM ^3 H-YM 09151-2, nonspecific binding with 1 mM spiperone, read-out: D3 Ki

D2 receptors, sequence (P52702 whole entry): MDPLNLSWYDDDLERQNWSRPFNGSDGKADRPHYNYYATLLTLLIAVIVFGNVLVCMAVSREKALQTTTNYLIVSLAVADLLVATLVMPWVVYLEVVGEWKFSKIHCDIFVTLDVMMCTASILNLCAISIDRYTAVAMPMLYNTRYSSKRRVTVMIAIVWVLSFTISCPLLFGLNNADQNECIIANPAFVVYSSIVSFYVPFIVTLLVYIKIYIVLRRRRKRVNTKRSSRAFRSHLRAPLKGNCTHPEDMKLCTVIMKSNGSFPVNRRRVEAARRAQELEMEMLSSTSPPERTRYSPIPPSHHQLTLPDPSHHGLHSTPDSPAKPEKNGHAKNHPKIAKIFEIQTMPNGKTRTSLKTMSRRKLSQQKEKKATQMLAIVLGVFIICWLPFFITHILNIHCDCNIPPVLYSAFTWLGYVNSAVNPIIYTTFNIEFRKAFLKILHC
D3 receptors, sequence (P52703 whole entry): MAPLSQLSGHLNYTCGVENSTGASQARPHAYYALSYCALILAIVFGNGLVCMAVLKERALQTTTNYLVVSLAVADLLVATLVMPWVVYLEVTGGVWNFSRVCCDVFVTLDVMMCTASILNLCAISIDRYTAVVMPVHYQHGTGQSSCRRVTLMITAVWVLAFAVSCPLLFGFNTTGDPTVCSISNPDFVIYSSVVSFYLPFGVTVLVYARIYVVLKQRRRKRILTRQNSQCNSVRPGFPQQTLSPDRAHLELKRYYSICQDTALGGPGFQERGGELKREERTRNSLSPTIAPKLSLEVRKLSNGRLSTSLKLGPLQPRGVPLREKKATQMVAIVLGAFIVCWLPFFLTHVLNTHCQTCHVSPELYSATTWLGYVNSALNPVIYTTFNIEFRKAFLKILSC

## O=C(NCCCCN1CCN(c2cccc3ccccc23)CC1)c1ccc2c(c1)Cc1ccccc1-2 [Compound 2, N-{4-[4-(1-Naphthyl)-1-piperazinyl]butyl}-9H-fluorene-2-carboxamide hydrochloride]
[1]; [3]
  Ki: 150 nM
[2]; [4]
  Ki: 1 nM

## O=C(NCCCCN1CCN(c2ccccc2Cl)CC1)c1ccc2c(c1)C(=O)c1ccccc1-2 [Compound 3, N-{4-[4-(2-Chlorophenyl)-1-piperazinyl]butyl}-9-oxo-fluorene-2-arboxamide hydrochloride]
[1]; [3]
  Ki: 97 nM
[2]; [4]
  Ki: 0.7 nM

## O=C(NCCCCN1CCN(c2cccc(Cl)c2Cl)CC1)c1ccc2c(c1)Cc1ccccc1-2 [Compound 1, N-{4-[4-(2,3-dichlorophenyl)-1-piperazinyl]butyl}-9H-fluorene-2-carboxamidehydrochloride]
[1]
  Ki: 729 nM
[2]
  Ki: 3 nM

Reference: US6015900A, “N-aminoalkylfluorenecarboxamides” (Neurogen Corporation, priority 1998, dated 2000)
